Key:
[1] = target: T1, Plasmodium falciparum hexose transporter (PfHT) (Plasmodium falciparum, UniProt O97467); details: cited from earlier work; for Km: substrate Km, read-out: Km for transport via PfHT
T1 construct: expressed in transfected cells; host or cells: Xenopus laevis oocytes
T1 sequence (O97467 1-504): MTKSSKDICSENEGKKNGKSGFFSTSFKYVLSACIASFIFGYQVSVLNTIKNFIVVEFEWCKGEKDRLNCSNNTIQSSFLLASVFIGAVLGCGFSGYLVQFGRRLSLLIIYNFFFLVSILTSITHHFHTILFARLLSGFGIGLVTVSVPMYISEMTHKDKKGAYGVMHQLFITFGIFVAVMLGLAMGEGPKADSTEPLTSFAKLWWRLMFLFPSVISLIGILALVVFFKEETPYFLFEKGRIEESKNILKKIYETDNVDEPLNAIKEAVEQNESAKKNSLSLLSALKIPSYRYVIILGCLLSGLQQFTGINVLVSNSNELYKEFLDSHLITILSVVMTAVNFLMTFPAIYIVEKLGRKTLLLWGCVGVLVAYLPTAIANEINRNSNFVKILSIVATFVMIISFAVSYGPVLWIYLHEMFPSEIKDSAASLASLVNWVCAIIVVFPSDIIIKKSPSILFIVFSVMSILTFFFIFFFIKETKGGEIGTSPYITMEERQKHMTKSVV

[2] = system: Babesia divergens (strain Rouen 1987); test: Babesia divergens growth inhibition; assay type: cell-based; details: B. divergens, mean ± SEM; for inhibition of parasite growth: 200 μM, n = 3
Procedure: (§1) Furthermore, given that catechins are competitive inhibitors of D-glucose transport mediated by GLUT1 [8], the relationship between external D-glucose concentration and IC50 values was examined. […] The effect of catechins was also tested on Babesia divergens (strain Rouen 1987) growth as described.

[3] = system: L323N BboHT1; test: D-glucose uptake by mutant L323N BboHT1 in X. laevis oocytes; assay type: cell-based, Babesia bovis; details: 0.5 mM catechin; L323N vs wild-type; P < 0.001
[4] = target: T2, GLUT5 (Homo sapiens, UniProt P22732); test: D-fructose transport via GLUT5 expressed in Xenopus laevis oocytes; assay type: cell-based, mammalian; details: D-fructose (100 μM) transport, X. laevis oocytes, room temperature; mean ± SEM (n ≥ 3)
T2 construct: expressed in transfected cells; host or cells: Xenopus laevis oocytes
T2 sequence (P22732 1-501): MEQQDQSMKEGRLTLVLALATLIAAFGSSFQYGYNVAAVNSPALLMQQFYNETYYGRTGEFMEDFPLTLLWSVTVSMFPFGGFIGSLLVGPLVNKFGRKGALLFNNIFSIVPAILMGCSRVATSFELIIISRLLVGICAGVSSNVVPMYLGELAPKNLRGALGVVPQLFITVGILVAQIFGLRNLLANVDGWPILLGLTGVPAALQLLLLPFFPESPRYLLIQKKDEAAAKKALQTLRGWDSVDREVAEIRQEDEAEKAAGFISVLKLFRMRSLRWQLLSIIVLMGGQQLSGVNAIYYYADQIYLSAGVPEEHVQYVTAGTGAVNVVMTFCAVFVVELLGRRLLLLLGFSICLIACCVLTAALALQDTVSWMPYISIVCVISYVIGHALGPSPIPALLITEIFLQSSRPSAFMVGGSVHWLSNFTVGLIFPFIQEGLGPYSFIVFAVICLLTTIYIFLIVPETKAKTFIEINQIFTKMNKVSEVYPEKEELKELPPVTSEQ
Procedure: (§2) The effect of the green tea catechins, EC, ECG, EGC and EGCG, on D-glucose transport via PfHT, GLUT1 and the Babesia bovis hexose transporter 1 (BboHT1; [12]) and D-fructose transport via GLUT5 was assayed in Xenopus laevis oocytes expressing each of the hexose transporters, using methods described previously.

[5] = target: T3, mammalian facilitative glucose transporter 1 (GLUT1) (Homo sapiens, UniProt P11166); test: D-glucose transport via GLUT1 expressed in Xenopus laevis oocytes; assay type: cell-based; details: D-glucose (38 μM) transport, X. laevis oocytes, room temperature; mean ± SEM (n ≥ 3)
T3 construct: expressed in transfected cells; host or cells: Xenopus laevis oocytes
T3 sequence (P11166 1-492): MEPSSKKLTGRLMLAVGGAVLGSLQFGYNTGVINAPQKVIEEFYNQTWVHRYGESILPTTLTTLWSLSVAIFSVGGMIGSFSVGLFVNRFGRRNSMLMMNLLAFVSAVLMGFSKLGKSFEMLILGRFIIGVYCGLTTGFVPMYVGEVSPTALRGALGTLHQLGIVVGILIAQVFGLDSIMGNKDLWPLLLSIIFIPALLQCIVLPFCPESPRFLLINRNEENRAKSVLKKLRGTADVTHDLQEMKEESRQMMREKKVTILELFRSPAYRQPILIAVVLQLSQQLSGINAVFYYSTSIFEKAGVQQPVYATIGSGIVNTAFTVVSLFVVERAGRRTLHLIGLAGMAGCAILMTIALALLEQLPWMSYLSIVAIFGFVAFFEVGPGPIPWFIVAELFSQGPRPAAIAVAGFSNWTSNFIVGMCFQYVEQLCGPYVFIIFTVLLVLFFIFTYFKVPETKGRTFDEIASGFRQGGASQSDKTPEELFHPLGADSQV
Procedure: as §2

[6] = target: T4, Babesia bovis hexose transporter 1 (BboHT1) (Babesia bovis, UniProt B0LKY8); test: D-glucose transport via BboHT1 expressed in Xenopus laevis oocytes; assay type: cell-based; details: X. laevis oocytes, room temperature, mean ± SEM (n ≥ 3)
T4 sequence (B0LKY8 entry or part of it): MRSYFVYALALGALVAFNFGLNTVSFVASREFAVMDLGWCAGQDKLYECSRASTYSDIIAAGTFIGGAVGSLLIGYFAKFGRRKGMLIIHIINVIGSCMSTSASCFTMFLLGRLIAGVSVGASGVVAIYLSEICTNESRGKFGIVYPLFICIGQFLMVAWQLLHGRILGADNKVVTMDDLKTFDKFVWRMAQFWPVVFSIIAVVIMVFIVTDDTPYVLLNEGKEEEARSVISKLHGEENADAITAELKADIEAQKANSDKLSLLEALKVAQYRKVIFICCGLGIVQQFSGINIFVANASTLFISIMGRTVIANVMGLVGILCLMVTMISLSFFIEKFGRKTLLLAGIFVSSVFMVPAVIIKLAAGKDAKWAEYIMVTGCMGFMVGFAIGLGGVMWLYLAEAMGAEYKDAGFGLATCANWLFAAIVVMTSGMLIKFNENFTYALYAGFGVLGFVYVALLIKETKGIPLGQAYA
Procedure: as §2, with “previously. The compounds were tested initially at a concentration of 0.5 mM (data not shown).” for “previously.”

[7] = target: T1, Plasmodium falciparum hexose transporter (PfHT); test: cell-based; details: D-glucose (38 μM) transport, X. laevis oocytes, room temperature; mean ± SEM (n ≥ 3)
Procedure: as §2

[8] = target: T5, PfHT (Plasmodium falciparum, UniProt O97467); test: 3-O-methyl-D-glucose (3OMG) transport via PfHT in X. laevis oocytes; assay type: cell-based; details: 3OMG (17 μM), mean ± SEM, n = 3
T5 construct: expressed in transfected cells; host or cells: Xenopus laevis oocytes

[9] = system: P. falciparum (3D7); test: P. falciparum growth in vitro; assay type: cell-based, Plasmodium falciparum; details: P. falciparum 3D7, 12 mM D-glucose, 48 h; mean ± SEM (n ≥ 3); read-out: IC50 parasite growth
Procedure: as §1

[10] = target: GLUT1; design: method as in PMID 12970085; details: human erythrocytes, zero-trans D-glucose efflux; read-out: Ki for D-glucose transport via GLUT1, published previously; cited from earlier work
[11] = target: T4, Babesia bovis hexose transporter 1 (BboHT1); design: method as in PMID 18638508; details: cited from earlier work
[12] = system: B. bovis parasites; design: method as in PMID 18638508; details: cited from earlier work

| Compound | Ki [4] [µM] | Ki [5] [µM] | Ki [6] [µM] | Ki [7] [µM] | other results |
| --- | --- | --- | --- | --- | --- |
| CO[C@@H]([C@H](O)[C@H](O)CO)[C@@H](O)C=O [3OMG, 3-O-methyl-D-glucose] |  |  |  |  | Km [1]: 1300 µM |
| OC[C@H]1OC(O)[C@H](O)[C@@H](O)[C@@H]1O (stereo partly drawn) [D-glucose] |  |  |  |  | Km [1]: 1000 µM |
| Oc1cc(O)c2c(c1)O[C@H](c1ccc(O)c(O)c1)[C@H](O)C2 [EC, (−)-epicatechin] | > 500 | ~500 | 108 ± 52 | > 500 | inhibition at 200 µM ([2]; Babesia divergens, n = 3, read-out: inhibition of parasite growth): 66 ± 14%; effect on D-glucose uptake by mutant versus wild-type BboHT1 [3]: affected significantly less |
| O=C(O[C@@H]1Cc2c(O)cc(O)cc2O[C@@H]1c1ccc(O)c(O)c1)c1cc(O)c(O)c(O)c1 [ECG, (−)-epicatechin-gallate] | 117 ± 54 | 68 ± 18 | > 500 | 45 ± 10 | Ki [8]: 18 ± 3 µM; IC50 [9]: 32 ± 1 µM; Ki [10]: 0.14 µM |
| Oc1cc(O)c2c(c1)O[C@H](c1cc(O)c(O)c(O)c1)[C@H](O)C2 [EGC, (−)-epigallocatechin] | > 500 | > 500 | 168 ± 83 | > 500 | inhibition of parasite growth [2]: 30 ± 10% |
| C=CCCCCCCCCCO[C@H]1[C@H](O)[C@@H](CO)OC(O)[C@@H]1O (stereo partly drawn) [compound 3361] |  |  |  |  | inhibition of BboHT1 [11]: good inhibitor; killing of B. bovis parasites in culture [12]: did not kill; inhibition of D-glucose transport via PfHT (mode) [1]: specific and competitive inhibitor |
| (−)-epigallocatechin-gallate [EGCG] | 113 ± 48 | 105 ± 18 | > 500 | 90 ± 24 | inhibition of parasite growth [2]: 71 ± 2%; IC50 [9]: 17 ± 3 µM; Ki [10]: 0.97 µM |
